According to patent US20090082398A1 (Teva Pharmaceutical Industries Ltd., priority 2004, published 2009):
Counter-ions that a name gives are not always drawn.

Key:
Type in all cases: physicochemical
[1] = Exposure of Form XX in controlled humidity cells, 9 days at 30 C, tested by XRD
[2] = Microscope observation of particle morphology; conditions: hydrochloride
From the text: The morphology of an active pharmaceutical substance plays an important role in drug performance, and has a profound impact on handling during milling processes and during drug product manufacturing. […].

[3] = Exposure in controlled humidity cells, 7 days at room temperature, tested by XRD and KF titration; parameters: Water content: unit not given here; conditions: for Water content: KF titration
Experimental: 200 mg of Fexofenadine HCl Form XVI was spread as a thin layer on an open dish, and then put in controlled humidity cells of 0, 20, 40, 60 and 80% RH for 7 days at room temperature. The samples were tested by XRD and by KF titration.

[4] = Heating under atmospheric pressure, then tested by XRD; conditions: 10 h

Structure (SMILES)	Water content ([3]; 0% RH)	Crystal Form content by XRD ([3]; 0% RH, hydrochloride)	Water content ([3]; 20% RH)	Crystal Form content by XRD ([3]; 20% RH, hydrochloride)	Water content ([3]; 40% RH)	Crystal Form content by XRD ([3]; 40% RH, hydrochloride)	Water content ([3]; 60% RH)	Crystal Form content by XRD ([3]; 60% RH, hydrochloride)	Crystal Form content by XRD ([3]; 80% RH)	Water content ([3]; 80% RH)	other results
CC(C)(C(=O)O)c1ccc(C(O)CCCN2CCC(C(O)(c3ccccc3)c3ccccc3)CC2)cc1 (centres unmarked) [Fexofenadine HCl Form XX, fexofenadine hydrochloride]	–	–	–	–	–	–	–	–	–	–	Crystal Form content by XRD ([1]; 40% RH): XVI + XX; Water content ([1]; 40% RH): 4.9; Crystal Form content by XRD ([1]; 60% RH): XVI + XX; Water content ([1]; 60% RH): 5.2; Crystal Form content by XRD ([1]; 80% RH): XVI; Water content ([1]; 80% RH): 7.8; Particle morphology ([2]; listed as fexofenadine HCl form XX): small rod shape particles
CC(C)(C(=O)O)c1ccc(C(O)CCCN2CCC(C(O)(c3ccccc3)c3ccccc3)CC2)cc1 (centres unmarked) [Fexofenadine HCl form I, fexofenadine hydrochloride, reference compound]	–	–	–	–	–	–	–	–	–	–	Particle morphology ([2]; listed as fexofenadine HCl form I): needles morphology
CC(C)(C(=O)O)c1ccc(C(O)CCCN2CCC(C(O)(c3ccccc3)c3ccccc3)CC2)cc1 (centres unmarked) [Fexofenadine HCl Form XVI, fexofenadine hydrochloride]	4.2	mixture of Fexofenadine HCl Form XVI and Fexofenadine HCl Form XX	7.0	XVI	7.3	XVI	7.3	XVI	XVI	8.3	Resulted Form ([4]; 65 C.): XVI; Resulted Form ([4]; 80 C.): XVI + Amorphous; Resulted Form ([4]; 100 C., hydrochloride): mixture of Fexofenadine HCl Form XVI and amorphous Form; Resulted Form ([4]; 100 C., listed as XVI, hydrochloride): XVI + Amorphous
CC(C)(C(=O)O)c1ccc(C(O)CCCN2CCC(C(O)(c3ccccc3)c3ccccc3)CC2)cc1 (centres unmarked) [mixture of Fexofenadine HCl Form XVI and Fexofenadine HCl Fo] [fexofenadine hydrochloride]	4.2	85% XVI, 15% Form XX	7.0	93% XVI, 7% Form XX	7.3	96% XVI, 4% Form XX	7.3	96% XVI, 4% Form XX	XVI	8.3	–
